Consider eight compounds from PubChem BioAssay (NCI).

The structures appear in SMILES notation.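 Exposure lasted 48 hours, with cells grown in 96-well plates and compounds tested at five concentrations. TGI: concentration producing complete growth inhibition.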 Bounds are passed on as bounds.

Holding throughout (experiment): NCI anticancer screen, dose series, 48 h
In test [1] the test system is MALME-3M melanoma.
Test [2] deals with M14 melanoma.
In test [3] the test system is MDA-MB-435.
Test [4] concerns K-562 leukemia.
Test [5] deals with T-47D breast.
The subject of test [6] is SK-MEL-5 melanoma.
For test [7], the system named is NCI-H23 lung.
Test [8] relates to NCI/ADR-RES ovarian.
The test system of test [9] is BT-549 breast.
Test [10] concerns SN12C renal.
The subject of test [11] is OVCAR-3 ovarian.
Test [12] has as its system KM12 colon.
For test [13], the system named is HT29 colon.
Test [14] relates to PC-3 prostate.
Test [15] deals with SF-295 CNS.
Test [16] relates to NCI-H226 lung.
The subject of test [17] is CAKI-1 renal.
The subject of test [18] is IGROV1 ovarian.

For `O=C(CCc1ccc(O)c(O)c1)NCCc1ccccc1`, the TGI in test [1] is above 100 µM; in test [2] it was above 100 µM; in test [3] it was 29.3 µM; in test [4] it was 49.6 µM; in test [5], above 100 µM; in [6] it was above 48.7 µM. For the same compound, the TGI in test [7] was above 100 µM; in [8], above 100 µM; in test [9], above 89.1 µM; in [10], above 31.6 µM; in test [11], above 100 µM; in test [12], above 100 µM. Further, the TGI in test [13] is above 72.2 µM; in test [14], above 51.9 µM; in test [15], above 100 µM; in test [16] it was above 100 µM; in test [17] it was 41 µM; in test [18], above 100 µM.
Take `CC1(C)CCCC2CC2CCC(C)(C)C1=O` (centres undefined): the TGI was above 100 µM in test [1]; above 100 µM in [2]; above 100 µM in test [3]; 40.1 µM in [4]; above 100 µM in test [5]; above 100 µM in test [6]. Moreover, the TGI in test [7] was above 100 µM; in test [8], above 100 µM; in test [9] it was above 100 µM; in test [10], above 100 µM; in test [11], 82.7 µM; in test [12], above 100 µM. Further, the TGI in test [13], in [14], in test [15], in [16], in test [17] and in [18] was above 100 µM each time.
`N#CC(c1ccccc1)N(CCc1ccccc1)C(=O)c1ccc(C(=O)N(CCc2ccccc2)C(C#N)c2ccccc2)cc1` (centres undefined): the TGI worked out at 39.3 µM in test [1]; 79 µM in test [2]; 58 µM in test [3]; 67.4 µM in test [4]; 61.3 µM in test [5]; 27.2 µM in [6]. Moreover, the TGI in test [7] is 77.6 µM; in [8], 47.3 µM; in test [9], 44.3 µM; in test [10], 38.3 µM; in test [11] it was 47 µM; in test [12], above 100 µM. Also, the TGI was 38.6 µM in test [13]; above 100 µM in test [14]; 51.9 µM in test [15]; 33.8 µM in test [16]; above 100 µM in [17]; 57 µM in [18].
`COc1ccc(-c2[nH]c(-c3ccc(OC)cc3)c(-c3ccccn3)c2-c2ccccn2)cc1`: the TGI in test [1] is above 100 µM; in test [2] it was above 100 µM; in test [3], above 100 µM; in test [4], 84.5 µM; in test [5], above 100 µM; in [6], 32.2 µM. For the same compound, the TGI in test [7] was above 100 µM; in test [8] it was above 100 µM; in [9] it was 99.9 µM; in [10], above 100 µM; in [11], above 100 µM; in test [12] it was above 100 µM. The TGI in test [13] was 49.3 µM; in [14], above 100 µM; in [15] it was above 100 µM; in test [16], above 100 µM; in test [17], above 100 µM; in [18] it was above 100 µM.
With `CC1=NNC(=O)C1C1CC(c2c[nH]c3ccccc23)=NN(c2ccccc2)C1=O` (centres undefined), the TGI in test [1], in test [2], in [3], in [4], in test [5] and in test [6] was above 100 µM throughout. Moreover, the TGI in test [7], in test [8], in [9], in test [10], in test [11] and in test [12] was above 100 µM in each case. The TGI in test [13], in test [14], in test [15], in [16], in test [17] and in test [18] was above 100 µM each time.
On to `CCOC(=O)c1cc(C2=CCNC2=O)c(-c2cc(C)no2)[nH]1`, for which the TGI in test [1], in [2], in [3], in test [4], in test [5] and in [6] was above 100 µM throughout. In addition, the TGI in [7], in [8], in test [9], in test [10], in [11] and in test [12] was above 100 µM throughout. Moreover, the TGI in test [13], in [14], in test [15], in [16], in [17] and in [18] was above 100 µM in each case.
Consider `COc1ccc(/C=C2\C[C@H]3[C@@H]4CC=C5C[C@@H](OC(C)=O)CC[C@]5(C)[C@H]4CC[C@]3(C)C2=O)cc1OC`, for which the TGI in test [1] is above 100 µM; in test [2], above 100 µM; in test [3] it was above 100 µM; in test [4], above 100 µM; in test [5] it was above 100 µM; in test [6] it was 26.4 µM. Besides, the TGI in [7], in test [8], in test [9], in [10], in test [11] and in [12] was above 100 µM each time. Moreover, the TGI in test [13], in test [14], in test [15], in [16], in [17] and in [18] was above 100 µM in each case.
Regarding `Cc1ccc(N=NN(C)C(C)C(O)Cc2ccccc2)cc1` (centres undefined), the TGI in [1] was above 100 µM; in test [2] it was above 100 µM; in test [3], above 100 µM; in [4], above 100 µM; in test [5], 88.5 µM; in test [6], above 100 µM. Besides, the TGI in [7], in test [8], in [9], in [10], in [11] and in [12] was above 100 µM throughout. Also, the TGI in [13], in test [14], in test [15], in [16], in test [17] and in test [18] was above 100 µM in each case.
